Data as given in patent US20160257697A1, “THIOPHENE-SUBSTITUTED TETRACYCLIC COMPOUNDS AND METHODS OFUSE THEREOF FOR THE TREATMENT OF VIRAL DISEASES” (priority 2013, published 2016).
pIC50: −log10 of the molar value. Read-outs that look alike come from different tables or passages of the source.

Tests used:
Assay in all cases: microbe, parasite or virus in culture
Type in all cases: cell-based, Hepatitis C virus (HCV)
[1] = tested on: HCV replicon 1AY93H; settings: Replicon Assay A; for IC50: read-out: 1A Y93H IC50 (nM), replicon 1AY93H
Method in brief: (§1)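 Cells seeded 2000/well + compound; 0.5% DMSO, 5% FBS; harvest day 3, lyse. Multiplex TaqMan RT-PCR for replicon (Neo probe) and cyclophilin RNA; amounts from Ct vs log(ng) linear regression of replicon total RNA standards.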

[2] = tested on: HCV replicon 1A; settings: Replicon Assay A
Method in brief: as §1

[3] = tested on: HCV replicon 2B; settings: Replicon Assay A; for IC50: read-out: 2B IC50 (nM), replicon 2B
Method in brief: as §1

[4] = tested on: HCV replicon 1AQ30D; settings: Replicon Assay B; for IC50: read-out: 1A Q30D IC50 (nM), replicon 1AQ30D
[5] = tested on: HCV replicon 1B; settings: Replicon Assay B
[6] = read-out: 1A Y93H IC50, HCV replicon 1A Y93H
[7] = read-out: 2B IC50, HCV replicon 2B
[8] = read-out: 1A Q30D IC50, HCV replicon 1A Q30D
[9] = read-out: 1A Y93H IC50, replicon 1AY93H
[10] = read-out: 1A Q30D IC50, replicon 1AQ30D
[11] = HCV replicon 1A Y93H, read-out: 1A Y93H IC50
[12] = HCV replicon 2B, read-out: 2B IC50
[13] = HCV replicon 1A Q30D, read-out: 1A Q30D IC50
[14] = Hepatitis C virus, HCV replicon 1A
[15] = Hepatitis C virus, read-out: 2B IC50, HCV replicon 2B
[16] = Hepatitis C virus, read-out: 1A Q30D IC50, HCV replicon 1A Q30D
[17] = Hepatitis C virus, HCV replicon 1B
[18] = Hepatitis C virus, read-out: 1A Y93H IC50, HCV replicon 1A Y93H

COC(=O)N[C@H](C(=O)N1CCC[C@H]1c1ncc(-c2cc(C)c3c(c2)OC(c2ccc(C4CC4)s2)n2c-3cc3cc(-c4cnc([C@@H]5C[C@H]6C[C@H]6N5C(=O)[C@@H](NC(=O)OC)C5CCOCC5)[nH]4)ccc32)[nH]1)C(C)C (single isomer, unassigned) [Compound 763]
pIC50 [1, 6]: 9.92 | pIC50 ([2]; HCV replicon 1A): 11.57 | pIC50 [3, 7]: 10.21 | pIC50 [4, 8]: 8.67 | pIC50 ([5]; HCV replicon 1B): 11.60

COC(=O)NC(C(=O)N1CCC[C@H]1c1ncc(-c2cc(F)c3c(c2)OC(c2ccc(C)s2)n2c-3cc3cc(-c4cnc([C@@H]5CCCN5C(=O)[C@@H](NC(=O)OC)C5CCOCC5)[nH]4)ccc32)[nH]1)C(C)(C)F (single isomer, unassigned) [Compound 108]
pIC50 [1, 9]: 9.60 | pIC50 ([2]; replicon 1A): 11.59 | pIC50 ([3]; read-out: 2B IC50, replicon 2B): 9.54 | pIC50 [4, 10]: 8.94 | pIC50 ([5]; replicon 1B): 11.57

COC(=O)NC(C(=O)N1CCC[C@H]1c1ncc(-c2ccc3c(c2)cc2n3C(c3ccc(C(F)(F)F)s3)Oc3cc(-c4cnc([C@@H]5CCCN5C(=O)[C@@H](NC(=O)OC)C(C)C)[nH]4)cc(F)c3-2)[nH]1)C1C[C@@H](C)O[C@@H](C)C1 (single isomer, unassigned) [Compound 649]
pIC50 [1, 11]: 9.62 | pIC50 ([2]; HCV replicon 1A): 11.70 | pIC50 [3, 12]: 9.60 | pIC50 [4, 13]: 9.39 | pIC50 ([5]; HCV replicon 1B): 11.92

CCCc1ccc(C2Oc3cc(-c4cnc([C@@H]5CCCN5C(=O)[C@@H](NC(=O)OC)C(C)C)[nH]4)cc(F)c3-c3cc4cc(-c5cnc([C@@H]6CCCN6C(=O)[C@@H](NC(=O)OC)C6CCOCC6)[nH]5)ccc4n32)s1 (single isomer, unassigned) [Compound 347]
pIC50 [1, 9]: 11.64 | pIC50 ([2]; replicon 1A): 11.72 | pIC50 ([3]; read-out: 2B IC50, replicon 2B): 11.55 | pIC50 [4, 10]: 10.89 | pIC50 ([5]; replicon 1B): 11.59

COC(=O)NC(C(=O)N1[C@@H]2C[C@@H]2C[C@H]1c1ncc(-c2ccc3c(c2)cc2n3C(c3cc4c(s3)CCC4)Oc3cc(-c4cnc([C@@H]5CCCN5C(=O)[C@@H](NC(=O)OC)C(C)C)[nH]4)cc(F)c3-2)[nH]1)C(C)C (single isomer, unassigned) [Compound 659]
pIC50 [1, 6]: 10.84 | pIC50 [2, 14]: 11.46 | pIC50 [3, 15]: 9.91 | pIC50 [4, 16]: 9.27 | pIC50 [5, 17]: 11.72

COC(=O)NC(C(=O)N1CCC[C@H]1c1ncc(-c2ccc3c(c2)cc2n3C(c3ccc(C4CC4)s3)Oc3cc(-c4cnc([C@@H]5CCCN5C(=O)[C@@H](NC(=O)OC)C(C)C)[nH]4)cc(F)c3-2)[nH]1)C1C[C@@H](C)O[C@@H](C)C1 (single isomer, unassigned) [Compound 206]
IC50 ([1]; Hepatitis C virus): 0.16 nM | pIC50 ([2]; Hepatitis C virus, replicon 1A): 11.85 | IC50 ([3]; Hepatitis C virus): 0.16 nM | IC50 ([4]; Hepatitis C virus): 2.91 nM | pIC50 ([5]; Hepatitis C virus, replicon 1B): 11.59

COC(=O)NC(C(=O)N1CCCC1c1ncc(-c2cc(F)c3c(c2)OC(c2ccc(C4CC4)s2)n2c-3cc3cc(-c4cnc(C5CC6CC6N5C(=O)C(NC(=O)OC)C5CCOCC5)[nH]4)ccc32)[nH]1)C(C)C (mixture of isomers) [Compound 651]
pIC50 [1, 11]: 11.64 | pIC50 ([2]; HCV replicon 1A): 11.89 | pIC50 [3, 12]: 11.09 | pIC50 [4, 13]: 10.75 | pIC50 ([5]; HCV replicon 1B): 11.74

COC(=O)NC(C(=O)N1CCC[C@H]1c1ncc(-c2ccc3c(c2)cc2n3C(c3ccc(C4CCCC4)s3)Oc3cc(-c4cnc([C@@H]5CCCN5C(=O)[C@@H](NC(=O)OC)C(C)C)[nH]4)cc(F)c3-2)[nH]1)C1C[C@@H](C)O[C@@H](C)C1 (single isomer, unassigned) [Compound 657]
pIC50 [1, 6]: 9.98 | pIC50 ([2]; HCV replicon 1A): 11.60 | pIC50 [3, 7]: 10.03 | pIC50 [4, 8]: 8.94 | pIC50 ([5]; HCV replicon 1B): 11.43

COC(=O)NC(C(=O)N1CCC[C@H]1c1ncc(-c2ccc3c(c2)c(F)c2n3C(c3ccc(C4CC4)s3)Oc3cc(-c4cnc([C@@H]5CCCN5C(=O)[C@@H](NC(=O)OC)C(C)C)[nH]4)cc(F)c3-2)[nH]1)C1CCOC(C)(C)C1 (single isomer, unassigned) [Compound 413]
pIC50 [1, 18]: 10.85 | pIC50 [2, 14]: 11.52 | pIC50 [3, 15]: 11.15 | pIC50 [4, 16]: 9.56 | pIC50 [5, 17]: 11.52

COC(=O)N[C@H](C(=O)N1CCC[C@H]1c1ncc(-c2cc(F)c3c(c2)OC(c2cc4ccccc4s2)n2c-3cc3cc(-c4cnc([C@@H]5C[C@H]6C[C@H]6N5C(=O)[C@@H](NC(=O)OC)C(C)C)[nH]4)ccc32)[nH]1)C(C)C (single isomer, unassigned) [Compound 616]
pIC50 [1, 6]: 10.69 | pIC50 ([2]; HCV replicon 1A): 11.54 | pIC50 [3, 7]: 9.58 | pIC50 [4, 8]: 9.27 | pIC50 ([5]; HCV replicon 1B): 11.70

CCc1ccc(C2Oc3cc(-c4cnc([C@@H]5CCCN5C(=O)[C@@H](NC(=O)OC)C(C)C)[nH]4)ccc3-c3c(F)c4cc(-c5cnc([C@@H]6CCCN6C(=O)C(NC(=O)OC)C6C[C@@H](C)O[C@@H](C)C6)[nH]5)ccc4n32)s1 (single isomer, unassigned) [Compound 634]
pIC50 [1, 6]: 10.83 | pIC50 ([2]; HCV replicon 1A): 11.64 | pIC50 [3, 7]: 10.57 | pIC50 [4, 8]: 9.62 | pIC50 [5, 17]: 11.82

COC(=O)N[C@H](C(=O)C1CCC[C@H]1c1ncc(-c2ccc3c(c2)cc2n3C(c3ccc(C(F)(F)F)s3)Oc3cc(-c4cnc([C@@H]5CCCN5C(=O)[C@@H](NC(=O)OC)C(C)C)[nH]4)cc(F)c3-2)[nH]1)C(C)C (single isomer, unassigned) [Compound 89]
pIC50 [1, 9]: 10.48 | pIC50 ([2]; Hepatitis C virus, replicon 1A): 12.00 | pIC50 ([3]; read-out: 2B IC50, replicon 2B): 10.20 | IC50 ([4]; Hepatitis C virus): 0.33 nM | pIC50 ([5]; Hepatitis C virus, replicon 1B): 11.82

COC(=O)NC(C(=O)N1[C@@H]2C[C@@H]2C[C@H]1c1ncc(-c2ccc3c(c2)cc2n3C(c3ccc(CC4CC4)s3)Oc3cc(-c4cnc([C@@H]5CCCN5C(=O)[C@@H](NC(=O)OC)C(C)C)[nH]4)cc(F)c3-2)[nH]1)C1CCOC(C)(C)C1 (single isomer, unassigned) [Compound 416]
pIC50 [1, 6]: 10.06 | pIC50 ([2]; HCV replicon 1A): 11.64 | pIC50 [3, 7]: 9.98 | pIC50 [4, 8]: 8.91 | pIC50 ([5]; HCV replicon 1B): 11.51

COC(=O)NC(C(=O)N1CCC[C@H]1c1ncc(-c2ccc3c(c2)cc2n3C(c3ccc(C4CC4)s3)Oc3cc(-c4cnc([C@@H]5CCCN5C(=O)[C@@H](NC(=O)OC)C(C)C)[nH]4)cc(F)c3-2)[nH]1)C1CN(C(=O)C2CC2)C1 (single isomer, unassigned) [Compound 267]
pIC50 [1, 9]: 10.89 | pIC50 ([2]; replicon 1A): 11.46 | pIC50 ([3]; read-out: 2B IC50, replicon 2B): 10.92 | IC50 ([4]; Hepatitis C virus): 0.08 nM | pIC50 ([5]; Hepatitis C virus, replicon 1B): 11.41

COC(=O)N[C@H](C(=O)N1CCC[C@H]1c1ncc(-c2ccc3c(c2)OC(c2cc4ccccc4s2)n2c-3cc3cc(-c4cnc([C@@H]5CCCN5C(=O)[C@@H](NC(=O)OC)C5CCOCC5)[nH]4)ccc32)[nH]1)C1CCOCC1 (single isomer, unassigned) [Compound 263]
pIC50 [1, 9]: 11.52 | pIC50 ([2]; replicon 1A): 11.44 | pIC50 ([3]; read-out: 2B IC50, replicon 2B): 11.30 | pIC50 [4, 10]: 10.92 | pIC50 ([5]; replicon 1B): 11.47

COC(=O)N[C@H](C(=O)N1CCC[C@H]1c1ncc(-c2ccc3c(c2)OC(c2ccc(C4CC4)s2)n2c-3c(F)c3cc(-c4cnc([C@@H]5CCCN5C(=O)[C@@H](NC(=O)OC)C(C)C)[nH]4)ccc32)[nH]1)C(C)C (single isomer, unassigned) [Compound 604]
pIC50 [1, 6]: 10.50 | pIC50 [2, 14]: 11.89 | pIC50 [3, 7]: 10.20 | pIC50 [4, 16]: 9.15 | pIC50 ([5]; HCV replicon 1B): 11.96

COC(=O)NC(C(=O)N1CCC[C@H]1c1ncc(-c2ccc3c(c2)cc2n3C(c3ccc(CC(F)(F)F)s3)Oc3cc(-c4cnc([C@@H]5CCCN5C(=O)[C@@H](NC(=O)OC)C(C)C)[nH]4)cc(F)c3-2)[nH]1)C1C[C@@H](C)O[C@@H](C)C1 (single isomer, unassigned) [Compound 382]
pIC50 ([1]; replicon 1AY93H, read-out: 1A Y93H IC50): 11.47 | pIC50 ([2]; replicon 1A): 11.77 | pIC50 ([3]; replicon 2B, read-out: 2B IC50): 11.10 | pIC50 ([4]; replicon 1AQ30D, read-out: 1A Q30D IC50): 10.64 | pIC50 ([5]; replicon 1B): 11.60

COC(=O)N[C@H](C(=O)N1CCC[C@@H]1c1ncc(-c2ccc3c(c2)cc2n3C(c3ccc(C4CC4)s3)Oc3cc(-c4cnc([C@@H]5CCCN5C(=O)[C@H](NC(=O)OC)C(C)(C)F)[nH]4)cc(F)c3-2)[nH]1)C1C[C@@H](C)O[C@@H](C)C1 (stereo partly shown) [Compound 380]
IC50 ([1]; Hepatitis C virus): 0.0052 nM | pIC50 ([2]; Hepatitis C virus, replicon 1A): 11.52 | IC50 ([3]; Hepatitis C virus): 0.0056 nM | IC50 ([4]; Hepatitis C virus): 0.022 nM | pIC50 ([5]; Hepatitis C virus, replicon 1B): 11.62

COC(=O)N[C@H](C(=O)N1CCC[C@H]1c1ncc(-c2ccc3c(c2)OC(c2ccc(C4CC4)s2)n2c-3c(F)c3cc(-c4cnc([C@@H]5C[C@H]6C[C@H]6N5C(=O)[C@@H](NC(=O)OC)C5C[C@@H](C)O[C@@H](C)C5)[nH]4)ccc32)[nH]1)C(C)C (single isomer, unassigned) [Compound 406]
pIC50 [1, 18]: 11.39 | pIC50 [2, 14]: 11.64 | pIC50 [3, 15]: 10.79 | pIC50 [4, 16]: 10.08 | pIC50 [5, 17]: 11.55

CCc1ccc(C2Oc3cc(-c4cnc([C@@H]5CCCN5C(=O)C(NC(=O)OC)C5CCOC(C)(C)C5)[nH]4)cc(F)c3-c3cc4cc(-c5cnc([C@@H]6CCCN6C(=O)C(NC(=O)OC)C6CCOC(C)(C)C6)[nH]5)ccc4n32)s1 (single isomer, unassigned) [Compound 296]
pIC50 [1, 9]: 11.70 | pIC50 ([2]; replicon 1A): 11.55 | pIC50 ([3]; read-out: 2B IC50, replicon 2B): 11.30 | pIC50 [4, 10]: 11.30 | pIC50 ([5]; replicon 1B): 11.48
